Data published in the NIST ThermoML archive (doi:10.1021/je050316s).
Values joined by “and” are separate entries in the source; they are usually repeats but may differ in a detail not shown here. Equal entries are not always repeated. Numbers after ± are expanded uncertainties.

What was measured:
[1] = Liquid; for mass density: 101.33 kPa
[2] = refractive index (Na D-line) (dimensionless); settings: 293.15 K; 101.33 kPa; Liquid; Standard Abbe refractometry

mass density ([1]; 303.15 K) | SMILES | mass density ([1]; 293.15 K) | vapor or sublimation pressure ([1]; 333.15 K) | vapor or sublimation pressure ([1]; 363.15 K) | refractive index [2]
– | Cc1ccccc1 [toluene] | 866.78 ± 0.19 kg/m3 | 18.56 ± 0.56 kPa | 54.49 ± 0.72 kPa | 1.496 ± 0.0004
732.93 ± 0.36 kg/m3 | CCCCCCCCCCC [undecane] | 740.11 ± 0.28 kg/m3 and 740.11 ± 0.36 kg/m3 | – | – | 1.4162 ± 0.0004
